From ChEMBL document CHEMBL5241127, “Design, synthesis and biological evaluation of novel 9-N-substituted-13-alkylberberine derivatives from Chinese medicine as anti-hepatocellular carcinoma agents” (Bioorg Med Chem, 2023)
Each block holds one compound with its values, some of them ahead of it. Active and inactive are the calls of the source. The rule behind the calls is not given here.

Experiments:
[1] = test system: HepG2; assay: Antiproliferative activity against human HepG2 cells assessed as inhibition of cell growth incubated for 72 hrs by MTT assay; assay type: functional, cell-based; conditions: HepG2, 72 h
[2] = test system: Quadruplex DNA; assay: Binding affinity to c-MYC G4-quadruplex DNA (unknown origin) using fluorescent tagged FPu18T model assessed as stabilization by measuring change in melting temperature at 2 uM by fluorescence based analysis; assay type: nucleic-acid assay
[3] = test system: DNA; assay: Binding affinity to duplex DNA (unknown origin) using fluorescent tagged F10T model assessed as stabilization by measuring change in melting temperature at 2 uM by fluorescence based analysis; assay type: nucleic-acid assay
[4] = test system: Quadruplex DNA; assay: Binding affinity to c-MYC G4-quadruplex DNA (unknown origin) using fluorescent tagged FPu18T model assessed as stabilization by measuring change in melting temperature at 2 uM incubated in presence of non-fluorescent ds26 DNA by fluorescence based analysis; assay type: nucleic-acid assay
[5] = test system: SK-HEP1; assay: Antiproliferative activity against human SK-HEP1 cells assessed as inhibition of cell growth incubated for 72 hrs by MTT assay; assay type: functional, cell-based; conditions: SK-HEP1, 72 h
[6] = test system: Huh-7; assay: Antiproliferative activity against human Huh-7 cells assessed as inhibition of cell growth incubated for 72 hrs by MTT assay; assay type: functional, cell-based; conditions: Huh-7, 72 h
[7] = test system: Hep 3B2; assay: Antiproliferative activity against human Hep3B cells assessed as inhibition of cell growth incubated for 72 hrs by MTT assay; assay type: functional, cell-based
[8] = test system: HepG2; assay: Antiproliferative activity against cisplatin-resistant human HepG2 cells assessed as inhibition of cell growth incubated for 72 hrs by MTT assay; assay type: functional, cell-based; conditions: HepG2, 72 h
[9] = Antiproliferative activity against human LX2 cells assessed as inhibition of cell growth incubated for 72 hrs by MTT assay; assay type: functional, cell-based; conditions: LX-2, 72 h
[10] = test system: H22; assay: Antitumor activity against […] xenografted in ICR mouse assessed as inhibition of tumor growth at 20 mg/kg, iv administered for 21 days and measured every 2 days relative to control; assay type: functional; conditions: H22, 504 h, time 21 day, read-out: TGI
[11] = test system: HepG2; assay: Potency index, ratio of cisplatin IC50 to test compound IC50 for antiproliferative activity against human HepG2 cells assessed as inhibition of cell growth incubated for 72 hrs by MTT assay; assay type: functional
[12] = test system: HepG2; assay: Potency index, ratio of cisplatin IC50 to test compound IC50 for antiproliferative activity against cisplatin-resistant human HepG2 cells assessed as inhibition of cell growth incubated for 72 hrs by MTT assay; assay type: functional
[13] = test system: Quadruplex DNA; assay: Stabilization of c-MYC G4-quadruplex DNA in human HepG2 cells assessed as BG4 foci formation at 0.3 uM incubated for 72 hrs by confocal laser scanning microscope based analysis; assay type: cell-based
[14] = test system: Quadruplex DNA; assay: Stabilization of c-MYC G4-quadruplex DNA in human HepG2 cells assessed as colocalization with BG4 in G4-forming region at 0.3 uM incubated for 72 hrs by confocal laser scanning microscope based analysis; assay type: cell-based
[15] = test system: Quadruplex DNA; assay: Stabilization of c-MYC G4-quadruplex DNA in human HepG2 cells assessed as downregulation of c-myc expression incubated for 72 hrs by Western blot analysis; assay type: cell-based; conditions: dose 0.15-0.6 µM
[16] = test system: HepG2; assay: Induction of cell cycle arrest in human HepG2 cells assessed as accumulation of cells at G2 phase at 0.15 to 0.6 uM incubated for 72 hrs by RNaseA/PI staining based flow cytometry analysis (reference value: 12.99%); assay type: functional; conditions: dose 0.15-0.6 µM
[17] = test system: HepG2; assay: Induction of cell cycle arrest in human HepG2 cells assessed as accumulation of cells at S phase at 0.15 to 0.6 uM incubated for 72 hrs by RNaseA/PI staining based flow cytometry analysis (reference value: 35.98%); assay type: functional; conditions: dose 0.15-0.6 µM
[18] = test system: HepG2; assay: Induction of G2/M phase cell cycle arrest in human HepG2 cells assessed as upregulation of p-cdc25c protein expression incubated for 72 hrs by Western blot analysis; assay type: functional, cell-based; conditions: dose 0.15-0.6 µM
[19] = test system: HepG2; assay: Induction of G2/M phase cell cycle arrest in human HepG2 cells assessed as downregulation of cdc2 protein expression incubated for 72 hrs by Western blot analysis; assay type: functional, cell-based; conditions: dose 0.15-0.6 µM
[20] = test system: HepG2; assay: Induction of G2/M phase cell cycle arrest in human HepG2 cells assessed as downregulation of cyclinB1 protein expression incubated for 72 hrs by Western blot analysis; assay type: functional, cell-based; conditions: dose 0.15-0.6 µM
[21] = test system: HepG2; assay: Induction of apoptosis in human HepG2 cells assessed as increase in total apoptotic cells at 0.15 to 0.6 uM incubated for 72 hrs by AnnexinV-FITC/propidium iodide staining based flow cytometry (reference value: 4.1%); assay type: functional; conditions: dose 0.15-0.6 µM
[22] = test system: HepG2; assay: Induction of apoptosis in human HepG2 cells assessed as increase in Bax protein expression incubated for 72 hrs by Western blot analysis; assay type: functional, cell-based; conditions: dose 0.15-0.6 µM
[23] = test system: HepG2; assay: Induction of apoptosis in human HepG2 cells assessed as increase in cytochrome C protein expression incubated for 72 hrs by Western blot analysis; assay type: functional, cell-based; conditions: dose 0.15-0.6 µM
[24] = test system: HepG2; assay: Induction of apoptosis in human HepG2 cells assessed as increase in cleaved caspase 3 expression incubated for 72 hrs by Western blot analysis; assay type: functional, cell-based; conditions: dose 0.15-0.6 µM
[25] = test system: HepG2; assay: Induction of apoptosis in human HepG2 cells assessed as reduction in Bcl-2 protein expression at […] incubated for 72 hrs by Western blot analysis; assay type: functional, cell-based; conditions: dose lower 0.15 µM
[26] = test system: HepG2; assay: Induction of ROS production in human HepG2 cells assessed as increase in ROS positive cells at 0 to 0.60 uM incubated for 72 hrs by DCF-DA staining based flow cytometry analysis (reference value: 4.21%); assay type: functional; conditions: dose 0-0.6 µM
[27] = test system: HepG2; assay: Induction of ROS production in human HepG2 cells assessed as increase in ROS positive cells at 0.06 uM preincubated with ROS scavenger, NAC followed by compound addition and further incubated for 72 hrs by DCF-DA staining based flow cytometry analysis (reference value: 4.21%); assay type: functional
[28] = test system: HepG2; assay: Induction of mitochondrial dysfunction in human HepG2 cells assessed as increase in cells with collapsed mitochondrial membrane potential at 0.15 to 0.6 uM incubated for 72 hrs by JC-1 staining based flow cytometry analysis (reference value: 4.84%); assay type: functional; conditions: dose 0.15-0.6 µM
[29] = test system: HepG2; assay: Downregulation of p-PI3K protein expression in human HepG2 cells incubated for 72 hrs by Western blot analysis; assay type: functional, cell-based; conditions: dose 0-0.6 µM
[30] = test system: HepG2; assay: Downregulation of p-AKT protein expression in human HepG2 cells incubated for 72 hrs by Western blot analysis; assay type: functional, cell-based; conditions: dose 0-0.6 µM
[31] = test system: HepG2; assay: Effect on PI3K total protein level in human HepG2 cells at 0 to 0.6 uM incubated for 72 hrs by Western blot analysis; assay type: functional, cell-based; conditions: dose 0-0.6 µM
[32] = test system: HepG2; assay: Effect on AKT total protein level in human HepG2 cells at 0 to 0.6 uM incubated for 72 hrs by Western blot analysis; assay type: functional, cell-based; conditions: dose 0-0.6 µM
[33] = Half life in Sprague-Dawley rat at 1 mg/kg, iv measured for 24 hrs by LC-MS/MS analysis; assay type: ADME, organism-based; conditions: in vivo
[34] = Initial plasma concentration in Sprague-Dawley rat at 1 mg/kg, iv by LC-MS/MS analysis; assay type: ADME, organism-based
[35] = Drug concentration in Sprague-Dawley rat plasma at 1 mg/kg, iv measured after 5 mins by LC-MS/MS analysis; assay type: ADME, organism-based
[36] = MRT (0 to t) in Sprague-Dawley rat at 1 mg/kg, iv measured for 24 hrs by LC-MS/MS analysis; assay type: ADME, organism-based; conditions: in vivo
[37] = AUC (0 to t) in Sprague-Dawley rat at 1 mg/kg, iv measured for 24 hrs by LC-MS/MS analysis; assay type: ADME, organism-based; design: dose 1 mg/kg, time 24 hrs, route iv; conditions: in vivo
[38] = Clearance in Sprague-Dawley rat at 1 mg/kg, iv measured for 24 hrs by LC-MS/MS analysis; assay type: ADME, organism-based; conditions: in vivo
[39] = test system: H22; assay: Antitumor activity against […] xenografted in ICR mouse assessed as reduction in tumor volume administered intravenously for 21 days and measured every 2 days; assay type: functional, cell-based; conditions: dose 10-20 mg/kg, route iv, time 21.0 day
[40] = test system: H22; assay: Antitumor activity against […] xenografted in ICR mouse assessed as reduction in tumor weight administered intravenously for 21 days; assay type: functional, cell-based; conditions: dose 10-20 mg/kg, route iv, time 21.0 day
[41] = test system: H22; assay: Antitumor activity against […] xenografted in ICR mouse assessed as inhibition of tumor growth at 10 mg/kg, iv administered for 21 days and measured every 2 days relative to control; assay type: functional; conditions: H22, 504 h, time 21 day, read-out: TGI
[42] = Toxicity in ICR mouse xenografted with […] H22 cells assessed as reduction in body weight at 10 to 20 mg/kg, iv administered for 21 days and measured every 2 days; assay type: organism-based; conditions: in vivo, 504 h, dose 10-20 mg/kg, time 21 day
[43] = Toxicity in ICR mouse xenografted with […] H22 cells assessed as abnormalities in heart at 20 mg/kg, iv administered for 21 days; assay type: organism-based; conditions: in vivo, 504 h, time 21 day
[44] = Toxicity in ICR mouse xenografted with […] H22 cells assessed as abnormalities in liver at 20 mg/kg, iv administered for 21 days; assay type: organism-based; conditions: in vivo, 504 h, time 21 day
[45] = Toxicity in ICR mouse xenografted with […] H22 cells assessed as abnormalities in spleen at 20 mg/kg, iv administered for 21 days; assay type: organism-based; conditions: in vivo, 504 h, time 21 day
[46] = Toxicity in ICR mouse xenografted with […] H22 cells assessed as abnormalities in lung at 20 mg/kg, iv administered for 21 days; assay type: organism-based; conditions: in vivo, 504 h, time 21 day
[47] = Toxicity in ICR mouse xenografted with […] H22 cells assessed as abnormalities in kidney at 20 mg/kg, iv administered for 21 days; assay type: organism-based; conditions: in vivo, 504 h, time 21 day

- IC50 [1]: 1010 nM
- ΔTm [2]: 21.8 °C
- ΔTm [3]: 0.4 °C
- ΔTm [4]: 21.1 °C
SMILES: CCCCCCCCc1c2[n+](c3c4c(c(OC)ccc14)N(CCN(C)C)C=C3)CCc1cc3c(cc1-2)OCO3

- IC50 [1]: > 50000 nM
- IC50 [5]: > 50000 nM
- IC50 [6]: > 50000 nM
- IC50 [8]: > 50000 nM
- ΔTm [2]: 1.6 °C
- ΔTm [3]: 2.1 °C
SMILES: COc1ccc2cc3[n+](cc2c1OC)CCc1cc2c(cc1-3)OCO2 [BERBERINE]
- IC50 [7]: > 50000 nM
- IC50 [9]: > 50000 nM
- inhibition in vivo at 20 mg/kg [10]: 42.3%

- IC50 [1]: 1370 nM
- ΔTm [2]: 23.1 °C
- ΔTm [3]: 1.8 °C
- ΔTm [4]: 19.3 °C
SMILES: CCCCCCCCc1c2[n+](cc3c(NCCCN4CCCC4)c(OC)ccc13)CCc1cc3c(cc1-2)OCO3

- IC50 [1]: 640 nM
- IC50 [5]: 1070 nM
- IC50 [6]: 580 nM
- IC50 [8]: 2120 nM
- half-life [33]: 2.62 h
- C0 [34]: 872 ng/mL
- concentration at 5 min [35]: 758 ng/mL
- MRT last at 24 h [36]: 1.81 h
- AUC(0-t) at 24 h [37]: 674 ng·h/mL
- clearance [38]: 21.7 mL/min/kg
- ΔTm [2]: 21.4 °C
- ΔTm [3]: 0.2 °C
- ΔTm [4]: 20.9 °C
SMILES: CCCCCCCCc1c2[n+](cc3c(NCCN(C)C)c(OC)ccc13)CCc1cc3c(cc1-2)OCO3.[Cl-]
- IC50 [7]: 1150 nM
- IC50 [9]: 8620 nM
- Ratio IC50 [11]: >10
- Ratio IC50 [12]: >40
- Activity [13]: Active
- Activity [14]: Active
- Activity [15]: Dose-Dependent Effect
- Activity [16]: 27.61%
- Activity [17]: 21.63%
- Activity [18]: Dose-Dependent Effect
- Activity [19]: Dose-Dependent Effect
- Activity [20]: Dose-Dependent Effect
- Activity [21]: 51.25%
- Activity [22]: Dose-Dependent Effect
- Activity [23]: Dose-Dependent Effect
- Activity [24]: Dose-Dependent Effect
- Activity [25]: Active
- Activity [26]: 52.48%
- Activity [27]: 3.67%
- Activity [28]: 40.73%
- Activity [29]: Dose-Dependent Effect
- Activity [30]: Dose-Dependent Effect
- Activity [31]: inactive
- Activity [32]: inactive
- Activity [39]: Dose-Dependent Effect
- Activity [40]: Dose-Dependent Effect
- inhibition in vivo at 10 mg/kg [41]: 51.8%
- inhibition in vivo at 20 mg/kg [10]: 62.9%
- Activity [42]: Non-Toxic
- Activity [43]: Non-Toxic
- Activity [44]: Non-Toxic
- Activity [45]: Non-Toxic
- Activity [46]: Non-Toxic
- Activity [47]: Non-Toxic
